Experimental data reported in US11767310B2, “Nicotinamide RIPK1 inhibitors” (AbbVie Inc., priority 2021, dated 2023).
Marks after values point to notes of the source that are not given here.

What was measured:
U937 cells = assay: U937 TNF/zVAD Cytotoxicity Cell Assay; type: cell-based; conditions: Homo sapiens, U-937; TNFα 10 ng/mL + Z-VAD FMK 20 μM, 16-20 hours; read-out: U937 TNF/zVAD Induced Cytotoxicity IC50
Procedure: Compounds were tested for their ability to prevent TNF induced necroptosis in U937 cells. Treatment with TNF and the caspase inhibitor zVAD-FMK results in the activation and phosphorylation of RIPK1 and subsequent phosphorylation of RIPK3 and MLKL (Mixed Lineage Kinase Domain Like Pseudokinase), leading to induction of necroptotic cell death that is measured as a reduction in cell viability. Similar U937 assay protocols have been previously described; see, e.g., Harris et al., ACS Med. Chem. Letters (2013) 4:1238-1243 and Supplementary Information.
Test compounds were solvated in dimethyl sulfoxide (DMSO) and 3-fold serially diluted from 10 uM to 0.0005 uM with technical duplicates into an empty 384 well plate. U937 cells were resuspended at a concentration of 500,000 cells/mL in fresh RPMI (Roswell Park Memorial Institute) 1640 growth medium containing 10% heat inactivated fetal bovine serum (FB1S) and seeded into a 384 well plate containing compounds and incubated for 1 hour at 37° C. Following incubation, the cells were challenged with TNFα (final concentration of 10 ng/mL) and Z-VAD FMK (N-Benzyloxycarbonyl-Val-Ala-Asp(O-Me) fluoromethyl ketone; final concentration of 20 μM) for 16-20 hours at 37° C. Following the incubation with TNFα/Z-VAD, cells were lysed with Cell Titer-Glo and incubated for 5-10 minutes. The plate was then read on an Envision plate reader. Data was normalized and analyzed with Studies from Dotmatics.

RIPK1 = RIPK1 (Homo sapiens (Human), UniProt Q13546); assay: RIPK1 Binding Assay; conditions: displacement of fluorescent probe, TR-FRET
Procedure: Compounds were tested for their ability to displace a fluorescent probe from recombinant human RIPK1.
Recombinant human RIPK1 (1-375) was prepared as described in Harris et al., ACS Med. Chem. Letters (2013) 4:1238-1243 (Supplementary Information), with the following exceptions: (i) instead of using the gene sequence from NM_003804.3, the gene was synthesized with codon optimization for BEV expression system, and (ii) the gene was cloned into the vector pFastBac1, not pDEST8.
A fluorescent probe containing an Oregon green fluorophore was synthesized from a compound known to bind to RIPK1.
The assay was performed in a buffer containing 50 mM N-2-Hydroxyethylpiperazine-N′-2-ethanesulfonic acid (HEPES) (pH 7.5), 10 mM MgCl2, 1 mM ethylene diamine tetraacetic acid (EDTA), and 0.01% BRIJ-35 (Polyoxyethylene (23) lauryl ether). Test compounds were solvated in dimethyl sulfoxide (DMSO) at final concentrations 4-fold serially diluted from 100 to 0.000095 uM in technical duplicates into an empty 384 well plate. Recombinant RIPK1 (final concentration of 2.5 nM) was added to the wells and incubated with test compound for 1 hour at room temperature. A solution containing the fluorescent probe (final concentration 5 nM) and an LanthaScreen Tb-anti-GST antibody (Thermofisher Scientific; final concentration of 5 nM) was then added to each well, with the Tb-anti-GST antibody binding to the GST portion of the recombinant RIPK1 and providing the corresponding FRET pair to the fluorescent probe. The plate was incubated for 1 hour at room temperature and read on an Envision plate reader using a time resolved FRET protocol. Data was normalized and analyzed using Studies from Dotmatics.

[1] = Prodrug bioconversion in intestinal S9 cell fractions; type: in vitro ADME
Procedure: (§1) Phosphatase enzymes are […] expressed with unique tissue specific isoforms and are key catalysts in the conversion of phosphate-containing prodrugs. To determine if exemplary phosphate prodrug compounds of the invention are enzymatically converted to the parent molecule across relevant species, the prodrug compounds were incubated with intestinal S9 cell fractions obtained from mouse, rat, dog, monkey, and human.
[…] Incubations were conducted in the absence and presence of 1 mM sodium orthovanadate, a phosphatase inhibitor. Prodrug depletion and parent formation were monitored by LC-MS/MS and normalized to internal standard as the analyte peak area ratio.

[2] = as above; type: in vitro ADME; conditions: 0.25 mg/mL
Procedure: as §1
Phosphate prodrugs were incubated (1 μM) for up to 2 hours in Tris-Cl buffer (pH 7.4) containing 3 mM magnesium chloride, intestinal S9 protein ([…] (ms, rat, hu, Table F) from mouse, rat, dog, monkey or human. Incubations were conducted in the absence and presence of 1 mM sodium orthovanadate, a phosphatase inhibitor. Prodrug depletion and parent formation were monitored by LC-MS/MS and normalized to internal standard as the analyte peak area ratio.

RIPK1, sequence (Q13546 1-375): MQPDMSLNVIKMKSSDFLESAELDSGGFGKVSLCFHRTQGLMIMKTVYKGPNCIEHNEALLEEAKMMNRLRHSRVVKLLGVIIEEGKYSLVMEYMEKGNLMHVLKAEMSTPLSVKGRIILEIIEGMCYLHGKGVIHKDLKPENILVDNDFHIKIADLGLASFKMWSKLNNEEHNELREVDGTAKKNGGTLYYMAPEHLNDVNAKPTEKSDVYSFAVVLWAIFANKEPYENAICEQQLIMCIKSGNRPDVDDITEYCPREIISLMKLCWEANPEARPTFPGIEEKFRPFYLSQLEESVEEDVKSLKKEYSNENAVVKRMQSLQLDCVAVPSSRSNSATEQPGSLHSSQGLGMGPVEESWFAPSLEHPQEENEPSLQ

Compound: CN(C[C@@H](O)Cc1ccccc1)C(=O)c1cncc(C#Cc2cnn(C(F)F)c2)c1 [Example 2, (S)-5-((1-(difluoromethyl)-1H-pyrazol-4-yl)ethynyl)-N-(2-hydroxy-3-phenylpropyl)-N-methylnicotinamide]
- IC50 (U937 cells): 11 nM
- IC50 (RIPK1): 4 nM

Compound: CN(C[C@H](Cc1ccccc1)OP(=O)(O)O)C(=O)c1cncc(C#Cc2cnn(C(F)F)c2)c1 [Example 19, (S)-1-(5-((1-(difluoromethyl)-1H-pyrazol-4-yl)ethynyl)-N-methylnicotinamido)-3-phenylpropan-2-yl dihydrogen phosphate]
- Clint (prodrug disappearance) ([1]; Human, 0.01 mg/mL S9 protein, Table F): 1608.5 μL/min/mg intestinal S9 protein
- Clint (prodrug disappearance) ([1]; Human, 0.25 mg/mL S9 protein, Table F): 296 μL/min/mg intestinal S9 protein
- Clint (prodrug disappearance) ([1]; Human, 0.25 mg/mL, Experiment 1): 246 μL/min/mg intestinal S9 protein
- Clint (prodrug disappearance) ([1]; Human, 0.25 mg/mL, Experiment 2): 228 μL/min/mg intestinal S9 protein
- Clint (prodrug disappearance) ([1]; Human, 0.25 mg/mL, Experiment 3): 235 μL/min/mg intestinal S9 protein
- Clint (prodrug disappearance) ([1]; Human, 0.25 mg/mL, Mean of 3 experiments): 236.3 μL/min/mg intestinal S9 protein
- Clint (prodrug disappearance) ([1]; Mouse, 0.01 mg/mL S9 protein, Table F): 116.8 μL/min/mg intestinal S9 protein
- Clint (prodrug disappearance) ([1]; Mouse, 0.25 mg/mL S9 protein, Table F): 54.7 μL/min/mg intestinal S9 protein
- Clint (prodrug disappearance) ([1]; Mouse, 0.25 mg/mL, Experiment 1): 43.1 μL/min/mg intestinal S9 protein
- Clint (prodrug disappearance) ([1]; Mouse, 0.25 mg/mL, Experiment 2): 74.6 μL/min/mg intestinal S9 protein
- Clint (prodrug disappearance) ([1]; Mouse, 0.25 mg/mL, Experiment 3): 42.2 μL/min/mg intestinal S9 protein
- Clint (prodrug disappearance) ([1]; Mouse, 0.25 mg/mL, Mean of 3 experiments): 53.3 μL/min/mg intestinal S9 protein
- Clint (prodrug disappearance) ([1]; Rat, 0.01 mg/mL S9 protein, Table F): <137** μL/min/mg intestinal S9 protein
- Clint (prodrug disappearance) ([1]; Rat, 0.25 mg/mL S9 protein, Table F): 42.4 μL/min/mg intestinal S9 protein
- Clint (prodrug disappearance) ([1]; Rat, 0.25 mg/mL, Experiment 1): 25.6 μL/min/mg intestinal S9 protein
- Clint (prodrug disappearance) ([1]; Rat, 0.25 mg/mL, Experiment 2): 16.9 μL/min/mg intestinal S9 protein
- Clint (prodrug disappearance) ([1]; Rat, 0.25 mg/mL, Experiment 3): 50.6 μL/min/mg intestinal S9 protein
- Clint (prodrug disappearance) ([1]; Rat, 0.25 mg/mL, Mean of 3 experiments): 31 μL/min/mg intestinal S9 protein
- Clint (prodrug disappearance) ([2]; Dog, Experiment 1): 331 μL/min/mg intestinal S9 protein
- Clint (prodrug disappearance) ([2]; Dog, Experiment 2): 387 μL/min/mg intestinal S9 protein
- Clint (prodrug disappearance) ([2]; Dog, Experiment 3): 397 μL/min/mg intestinal S9 protein
- Clint (prodrug disappearance) ([2]; Dog, Mean of 3 experiments): 371.7 μL/min/mg intestinal S9 protein
- Clint (prodrug disappearance) ([2]; Monkey, Experiment 1): 87.5 μL/min/mg intestinal S9 protein
- Clint (prodrug disappearance) ([2]; Monkey, Experiment 2): 60.3 μL/min/mg intestinal S9 protein
- Clint (prodrug disappearance) ([2]; Monkey, Experiment 3): 60.7 μL/min/mg intestinal S9 protein
- Clint (prodrug disappearance) ([2]; Monkey, Mean of 3 experiments): 69.5 μL/min/mg intestinal S9 protein
